Data published in patent publication EP2818471A1, “Nitrogen bicyclic compounds as inhibitors for Scyl1 and Grk5” (Max-Planck-Gesellschaft zur Förderung der Wissenschaften …, priority 2013, dated 2014).

Test system: beta-TC6 cells
Assay: Insulin HTRF assay, relative activity Ar normalized to sunitinib
Format: cell-based
Details: Mus musculus, normalized to positive control sunitinib (5 µM = 100%), Table 10
How it was run: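 Relative activity Ar was scaled between 0% and 100% controls, with sunitinib at 5 µM f.c. as reference. Insulin released by beta-TC6 cells was quantified by sandwich HTRF (Eu-cryptate/XL665 antibodies, 120 min RT). Cells had been seeded 24 or 48 h, then treated 2–4 h at 37°C in induction buffer, 0.5% DMSO.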

| SMILES | Emax [%] |
| --- | --- |
| CN(C)c1cccc(-c2cnc3cnc(-c4ccsc4)cn23)c1 [compound 343, N,N-dimethyl-3-[6-(3-thienyl)imidazo[1,2-a]pyrazin-3-yl]aniline] | 50 to 100 |
| CN(C)c1cccc(-c2cnc3cnc(-c4ccc(CO)cc4)cn23)c1 [compound 344, [4-[3-[3-(dimethylamino)phenyl]imidazo[1,2-a]pyrazin-6-yl]phenyl]methanol] | 20 to 50 |
| CN(C)c1cccc(-c2cnc3cnc(-c4cccs4)cn23)c1 [compound 345, N,N-dimethyl-3-[6-(2-thienyl)imidazo[1,2-a]pyrazin-3-yl]aniline] | 20 to 50 |
| COc1cc(OC)cc(-c2cn3c(-c4cccc(N(C)C)c4)cnc3cn2)c1 [compound 346, 3-[6-(3,5-dimethoxyphenyl)imidazo[1,2-a]pyrazin-3-yl]-N,N-dimethyl-aniline] | 20 to 50 |
| Clc1ccc(-c2cnc3cnc(-c4ccncc4)cn23)cc1 [compound 347, 3-(4-chlorophenyl)-6-(4-pyridyl)imidazo[1,2-a]pyrazine] | 20 to 50 |
| Clc1ccc(-c2cnc3cnc(-c4ccsc4)cn23)cc1 [compound 348, 3-(4-chlorophenyl)-6-(3-thienyl)imidazo[1,2-a]pyrazine] | 50 to 100 |
| Clc1ccc(-c2cnc3cnc(-c4cccs4)cn23)cc1 [compound 349, 3-(4-chlorophenyl)-6-(2-thienyl)imidazo[1,2-a]pyrazine] | 20 to 50 |
| CC(=O)Nc1cccc(-c2cn3c(-c4ccc(F)c(Cl)c4)cnc3cn2)c1 [compound 350, N-[3-[3-(3-chloro-4-fluoro-phenyl)imidazo[1,2-a]pyrazin-6-yl]phenyl]acetamide] | 20 to 50 |
| Fc1ccc(-c2cnc3cnc(-c4ccco4)cn23)cc1Cl [compound 351, 3-(3-chloro-4-fluoro-phenyl)-6-(2-furyl)imidazo[1,2-a]pyrazine] | 20 to 50 |
| FC(F)(F)Oc1cccc(-c2cnc3cnc(-c4cccnc4)cn23)c1 [compound 352, 6-(3-pyridyl)-3-[3-(trifluoromethoxy)phenyl]imidazo[1,2-a]pyrazine] | 20 to 50 |
| O=C(NCCO)c1cccc(-c2cn3c(-c4cccc(OC(F)(F)F)c4)cnc3cn2)c1 [compound 353, N-(2-hydroxyethyl)-3-[3-[3-(trifluoromethoxy)phenyl]imidazo[1,2-a]pyrazin-6-yl]benzamide] | 20 to 50 |
| CN1CCN(C(=O)c2cccc(-c3cnc4cnc(-c5ccc6c(c5)OCO6)cn34)c2)CC1 [compound 355, [3-[6-(1,3-benzodioxol-5-yl)imidazo[1,2-a]pyrazin-3-yl]phenyl]-(4-methylpiperazin-1-yl)methanone] | 20 to 50 |
| CN1CCN(C(=O)c2cccc(-c3cnc4cnc(-c5ccc6c(ccn6C)c5)cn34)c2)CC1 [compound 358, [3-[6-(1-methylindol-5-yl)imidazo[1,2-a]pyrazin-3-yl]phenyl]-(4-methylpiperazin-1-yl)methanone] | 20 to 50 |
| CN1CCN(C(=O)c2cccc(-c3cnc4cnc(-c5ccc(CNc6ccccc6)cc5)cn34)c2)CC1 [compound 359, [3-[6-[4-(anilinomethyl)phenyl]imidazo[1,2-a]pyrazin-3-yl]phenyl]-(4-methylpiperazin-1-yl)methanone] | 10 to 20 |
| OCc1ccc(-c2cn3c(-c4cccc(Cl)c4)cnc3cn2)cc1 [compound 360, [4-[3-(3-chlorophenyl)imidazo[1,2-a]pyrazin-6-yl]phenyl]methanol] | 20 to 50 |
| COc1ccc(-c2cnc3cnc(-c4ccc(CO)cc4)cn23)cc1 [compound 361, [4-[3-(4-methoxyphenyl)imidazo[1,2-a]pyrazin-6-yl]phenyl]methanol] | 50 to 100 |
| COc1ccc(-c2cnc3cnc(-c4cccs4)cn23)cc1 [compound 362, 3-(4-methoxyphenyl)-6-(2-thienyl)imidazo[1,2-a]pyrazine] | 20 to 50 |
| COc1ccc(-c2cnc3cnc(-c4ccc(N)nc4)cn23)cc1 [compound 363, 5-[3-(4-methoxyphenyl)imidazo[1,2-a]pyrazin-6-yl]pyridin-2-amine] | 20 to 50 |
| Oc1cccc(-c2cnc3cnc(-c4cc5ccccc5s4)cn23)c1 [compound 364, 3-[6-(benzothiophen-2-yl)imidazo[1,2-a]pyrazin-3-yl]phenol] | 50 to 100 |
| Oc1cccc(-c2cnc3cnc(-c4ccc(Cl)cc4)cn23)c1 [compound 365, 3-[6-(4-chlorophenyl)imidazo[1,2-a]pyrazin-3-yl]phenol] | 20 to 50 |
| Oc1cccc(-c2cnc3cnc(/C=C/c4ccccc4)cn23)c1 [compound 366, 3-[6-[(E)-styryl]imidazo[1,2-a]pyrazin-3-yl]phenol] | 20 to 50 |
| CN1CCN(c2ccc(-c3cn4c(-c5cccc(O)c5)cnc4cn3)cc2)CC1 [compound 367, 3-[6-[4-(4-methylpiperazin-1-yl)phenyl]imidazo[1,2-a]pyrazin-3-yl]phenol] | 20 to 50 |
| Oc1cccc(-c2cnc3cnc(-c4cccc(Cl)c4)cn23)c1 [compound 368, 3-[6-(3-chlorophenyl)imidazo[1,2-a]pyrazin-3-yl]phenol] | 20 to 50 |

| SMILES | Emax [%] |
| --- | --- |
| COc1ccc(-c2cn3c(-c4cccc(O)c4)cnc3cn2)cn1 [compound 369, 3-[6-(6-methoxy-3-pyridyl)imidazo[1,2-a]pyrazin-3-yl]phenol] | 20 to 50 |
| Oc1cccc(-c2cnc3cnc(-c4cccs4)cn23)c1 [compound 370, 3-[6-(2-thienyl)imidazo[1,2-a]pyrazin-3-yl]phenol] | 20 to 50 |
| COc1cc(OC)cc(-c2cn3c(-c4cccc(O)c4)cnc3cn2)c1 [compound 371, 3-[6-(3,5-dimethoxyphenyl)imidazo[1,2-a]pyrazin-3-yl]phenol] | 20 to 50 |
| COc1cccc(-c2cn3c(-c4cccc(O)c4)cnc3cn2)c1F [compound 372, 3-[6-(2-fluoro-3-methoxy-phenyl)imidazo[1,2-a]pyrazin-3-yl]phenol] | 20 to 50 |
| OCc1ccc(-c2cnc3cnc(-c4ccco4)cn23)cc1 [compound 373, [4-[6-(2-furyl)imidazo[1,2-a]pyrazin-3-yl]phenyl]methanol] | 20 to 50 |
| OCc1ccc(-c2cnc3cnc(-c4ccc(Cl)cc4Cl)cn23)cc1 [compound 374, [4-[6-(2,4-dichlorophenyl)imidazo[1,2-a]pyrazin-3-yl]phenyl]methanol] | 20 to 50 |
| O=C(NC1CCCC1)c1ccc(-c2cn3c(-c4ccc(CO)cc4)cnc3cn2)cc1 [compound 375, N-cyclopentyl-4-[3-[4-(hydroxymethyl)phenyl]imidazo[1,2-a]pyrazin-6-yl]benzamide] | 20 to 50 |
| OCc1cccc(-c2cnc3cnc(-c4ccccc4)cn23)c1 [compound 376, [3-(6-phenylimidazo[1,2-a]pyrazin-3-yl)phenyl]methanol] | 20 to 50 |
| CSc1ccc(-c2cn3c(-c4cccc(CO)c4)cnc3cn2)cc1 [compound 377, [3-[6-(4-methylsulfanylphenyl)imidazo[1,2-a]pyrazin-3-yl]phenyl]methanol] | 20 to 50 |
| CCOc1cccc(-c2cn3c(-c4cccc(CO)c4)cnc3cn2)c1 [compound 378, [3-[6-(3-ethoxyphenyl)imidazo[1,2-a]pyrazin-3-yl]phenyl]methanol] | 20 to 50 |
| OCc1cccc(-c2cnc3cnc(-c4cccs4)cn23)c1 [compound 379, [3-[6-(2-thienyl)imidazo[1,2-a]pyrazin-3-yl]phenyl]methanol] | 20 to 50 |
| CC(C)Oc1cccc(-c2cn3c(-c4cccc(CO)c4)cnc3cn2)c1 [compound 380, [3-[6-(3-isopropoxyphenyl)imidazo[1,2-a]pyrazin-3-yl]phenyl]methanol] | 20 to 50 |
| COc1ccc(-c2cnc3cnc(-c4ccc(N5CCN(C)CC5)cc4)cn23)cn1 [compound 381, 3-(6-methoxy-3-pyridyl)-6-[4-(4-methylpiperazin-1-yl)phenyl]imidazo[1,2-a]pyrazine] | 20 to 50 |
| COc1ccc(-c2cn3c(-c4ccc(OC)nc4)cnc3cn2)cn1 [compound 382, 3,6-bis(6-methoxy-3-pyridyl)imidazo[1,2-a]pyrazine] | 20 to 50 |
| COc1ccc(-c2cnc3cnc(-c4cccc(C(N)=O)c4)cn23)cn1 [compound 383, 3-[3-(6-methoxy-3-pyridyl)imidazo[1,2-a]pyrazin-6-yl]benzamide] | 20 to 50 |
| Nc1cccc(-c2cn3c(-c4cccc(F)c4)cnc3cn2)c1 [compound 384, 3-[3-(3-fluorophenyl)imidazo[1,2-a]pyrazin-6-yl]aniline] | 20 to 50 |
| Fc1cccc(-c2cnc3cnc(-c4ccccc4)cn23)c1 [compound 385, 3-(3-fluorophenyl)-6-phenyl-imidazo[1,2-a]pyrazine] | 20 to 50 |
| Fc1cccc(-c2cnc3cnc(-c4ccc5c(c4)OCO5)cn23)c1 [compound 386, 6-(1,3-benzodioxol-5-yl)-3-(3-fluorophenyl)imidazo[1,2-a]pyrazine] | 20 to 50 |
| Fc1cccc(-c2cnc3cnc(-c4ccc(N5CCNCC5)cc4)cn23)c1 [compound 387, 3-(3-fluorophenyl)-6-(4-piperazin-1-ylphenyl)imidazo[1,2-a]pyrazine] | 10 to 20 |
| Fc1cccc(-c2cnc3cnc(-c4ccc(Cl)cc4)cn23)c1 [compound 388, 6-(4-chlorophenyl)-3-(3-fluorophenyl)imidazo[1,2-a]pyrazine] | 20 to 50 |
| OCc1ccc(-c2cn3c(-c4cccc(F)c4)cnc3cn2)cc1 [compound 389, [4-[3-(3-fluorophenyl)imidazo[1,2-a]pyrazin-6-yl]phenyl]methanol] | 20 to 50 |
| Fc1cccc(-c2cnc3cnc(-c4cccs4)cn23)c1 [compound 390, 3-(3-fluorophenyl)-6-(2-thienyl)imidazo[1,2-a]pyrazine] | 20 to 50 |
| COc1cc(-c2cnc3cnc(-c4ccc(OCCCN(C)C)nc4)cn23)ccc1O [compound 391, 4-[6-[6-[3-(dimethylamino)propoxy]-3-pyridyl]imidazo[1,2-a]pyrazin-3-yl]-2-methoxy-phenol] | 20 to 50 |
